In patent US20200291018A1, “TAM KINASE INHIBITORS” (SYROS PHARMACEUTICALS, INC., priority 2017, published 2020):

Tests used:
[1] = molecular target: T1, FLT3 (Homo sapiens, UniProt P36888); test: TR-FRET kinase activity assay, FLT3; type: biochemical; details: ATP at Km, 60 minutes
T1 sequence (P36888 27-993): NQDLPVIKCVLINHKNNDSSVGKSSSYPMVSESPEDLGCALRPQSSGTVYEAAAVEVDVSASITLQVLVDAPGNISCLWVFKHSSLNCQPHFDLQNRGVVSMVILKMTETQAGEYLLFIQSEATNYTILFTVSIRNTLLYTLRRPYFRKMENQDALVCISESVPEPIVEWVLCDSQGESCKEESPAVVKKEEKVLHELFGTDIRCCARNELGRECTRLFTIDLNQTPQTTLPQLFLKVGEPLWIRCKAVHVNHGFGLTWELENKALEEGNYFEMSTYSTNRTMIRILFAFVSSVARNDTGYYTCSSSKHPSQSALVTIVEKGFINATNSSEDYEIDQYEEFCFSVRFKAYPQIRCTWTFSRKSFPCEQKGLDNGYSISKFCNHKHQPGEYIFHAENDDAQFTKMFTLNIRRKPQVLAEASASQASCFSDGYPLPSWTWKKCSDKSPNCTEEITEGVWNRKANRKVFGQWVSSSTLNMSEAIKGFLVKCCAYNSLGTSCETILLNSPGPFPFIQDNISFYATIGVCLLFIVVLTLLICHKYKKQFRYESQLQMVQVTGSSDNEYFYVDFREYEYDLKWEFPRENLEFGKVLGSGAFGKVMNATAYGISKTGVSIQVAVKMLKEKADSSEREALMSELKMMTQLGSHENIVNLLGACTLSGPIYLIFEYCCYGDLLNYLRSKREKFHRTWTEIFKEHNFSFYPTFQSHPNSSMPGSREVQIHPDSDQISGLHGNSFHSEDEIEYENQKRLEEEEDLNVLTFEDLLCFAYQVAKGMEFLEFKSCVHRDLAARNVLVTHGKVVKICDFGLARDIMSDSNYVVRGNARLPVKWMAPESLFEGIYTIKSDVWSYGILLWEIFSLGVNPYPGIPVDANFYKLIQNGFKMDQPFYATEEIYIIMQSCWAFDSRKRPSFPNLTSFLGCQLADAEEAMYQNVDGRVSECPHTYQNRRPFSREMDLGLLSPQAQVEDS
How it was run: (§1)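 Each kinase phosphorylates a fluorescently labeled peptide on tyrosine in the presence of compound, with ATP at its Km, for 60 min at RT in HEPES pH 7.5 buffer with MgCl2, EGTA, Brij 35 and DTT. Product is detected by TR-FRET with a Europium-labeled phospho-specific antibody; IC50 values follow.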

[2] = molecular target: T2, TYRO3 (Homo sapiens, UniProt Q06418); test: TR-FRET kinase activity assay, TYRO3; type: biochemical; details: ATP at Km, 60 minutes
T2 sequence (Q06418 41-890): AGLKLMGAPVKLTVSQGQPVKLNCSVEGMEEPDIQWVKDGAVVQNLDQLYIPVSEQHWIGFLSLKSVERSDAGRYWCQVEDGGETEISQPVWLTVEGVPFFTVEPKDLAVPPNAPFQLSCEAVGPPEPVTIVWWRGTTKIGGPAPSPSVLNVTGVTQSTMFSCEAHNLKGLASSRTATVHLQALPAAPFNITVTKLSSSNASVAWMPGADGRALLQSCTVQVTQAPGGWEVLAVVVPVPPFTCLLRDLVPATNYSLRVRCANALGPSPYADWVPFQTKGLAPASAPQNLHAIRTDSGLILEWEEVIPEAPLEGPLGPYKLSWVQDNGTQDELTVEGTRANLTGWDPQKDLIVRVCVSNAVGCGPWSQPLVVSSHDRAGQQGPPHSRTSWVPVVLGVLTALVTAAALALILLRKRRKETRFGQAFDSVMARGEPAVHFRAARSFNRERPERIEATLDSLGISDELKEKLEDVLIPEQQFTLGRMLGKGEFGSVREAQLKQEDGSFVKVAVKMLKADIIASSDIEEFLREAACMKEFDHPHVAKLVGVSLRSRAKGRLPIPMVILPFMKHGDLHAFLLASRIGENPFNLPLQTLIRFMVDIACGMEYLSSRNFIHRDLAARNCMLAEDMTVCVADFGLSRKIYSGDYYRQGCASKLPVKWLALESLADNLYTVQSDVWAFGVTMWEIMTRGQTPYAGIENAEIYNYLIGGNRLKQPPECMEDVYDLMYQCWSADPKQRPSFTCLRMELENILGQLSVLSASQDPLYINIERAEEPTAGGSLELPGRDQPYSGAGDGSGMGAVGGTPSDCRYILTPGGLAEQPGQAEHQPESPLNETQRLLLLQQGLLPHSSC
How it was run: as §1

IC50 [1]: 100 to 1000 nM | IC50 [2]: ≤ 100 nM
Compound: C[C@@H](CC(F)(F)F)Nc1ncc2c(O[C@H]3C[C@@](C)(O)C3)ncc([C@H]3CC[C@H](O)CC3)c2n1 [Compound 429]
